Experimental data as given in ChEMBL document CHEMBL1136687, “Novel 5-aryl-1,3-dihydro-indole-2-thiones. potent, orally active progesterone receptor agonists” (Bioorg Med Chem Lett, 2003).

Legend:
Progesterone receptor [1] = molecular target: T1, Progesterone receptor (Homo sapiens, UniProt P06401); assay: (§1) Effective concentration of progesterone receptor agonist induction of alkaline phosphatase activity in human T47D breast carcinoma cells; type: functional, cell-based
T1 sequence (P06401 whole entry): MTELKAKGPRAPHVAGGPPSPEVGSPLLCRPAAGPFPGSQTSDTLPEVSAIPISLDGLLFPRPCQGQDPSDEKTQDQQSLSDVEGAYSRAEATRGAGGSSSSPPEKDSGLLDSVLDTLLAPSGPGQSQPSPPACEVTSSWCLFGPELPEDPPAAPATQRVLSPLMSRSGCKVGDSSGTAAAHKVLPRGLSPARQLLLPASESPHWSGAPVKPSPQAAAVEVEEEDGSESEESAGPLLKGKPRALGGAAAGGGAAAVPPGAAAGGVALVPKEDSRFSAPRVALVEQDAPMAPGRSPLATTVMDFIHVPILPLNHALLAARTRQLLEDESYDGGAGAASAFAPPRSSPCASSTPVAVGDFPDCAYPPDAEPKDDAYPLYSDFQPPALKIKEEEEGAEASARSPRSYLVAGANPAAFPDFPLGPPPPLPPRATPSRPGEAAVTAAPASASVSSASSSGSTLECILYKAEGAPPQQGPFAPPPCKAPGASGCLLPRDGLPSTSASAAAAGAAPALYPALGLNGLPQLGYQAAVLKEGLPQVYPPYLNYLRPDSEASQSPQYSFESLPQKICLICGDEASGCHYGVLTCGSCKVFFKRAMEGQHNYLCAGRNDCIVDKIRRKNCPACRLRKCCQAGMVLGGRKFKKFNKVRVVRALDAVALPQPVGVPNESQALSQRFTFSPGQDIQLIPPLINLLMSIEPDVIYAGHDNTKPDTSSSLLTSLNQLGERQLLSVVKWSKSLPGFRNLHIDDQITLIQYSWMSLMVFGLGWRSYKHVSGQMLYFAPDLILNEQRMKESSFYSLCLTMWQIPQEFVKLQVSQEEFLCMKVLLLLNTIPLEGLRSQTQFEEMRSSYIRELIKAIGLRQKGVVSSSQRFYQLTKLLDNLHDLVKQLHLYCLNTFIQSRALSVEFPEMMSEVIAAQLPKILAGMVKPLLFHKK

Progesterone receptor [2] = molecular target: T1, Progesterone receptor; assay: as §1; type: functional, cell-based; remark: listed apart in the source
[3] = molecular target: T2, Progesterone receptor (Rattus norvegicus) (UniProt Q63449); assay: Effective progestational dose on oral administration in rat decidualization model; type: functional, organism-based
T2 sequence (whole entry): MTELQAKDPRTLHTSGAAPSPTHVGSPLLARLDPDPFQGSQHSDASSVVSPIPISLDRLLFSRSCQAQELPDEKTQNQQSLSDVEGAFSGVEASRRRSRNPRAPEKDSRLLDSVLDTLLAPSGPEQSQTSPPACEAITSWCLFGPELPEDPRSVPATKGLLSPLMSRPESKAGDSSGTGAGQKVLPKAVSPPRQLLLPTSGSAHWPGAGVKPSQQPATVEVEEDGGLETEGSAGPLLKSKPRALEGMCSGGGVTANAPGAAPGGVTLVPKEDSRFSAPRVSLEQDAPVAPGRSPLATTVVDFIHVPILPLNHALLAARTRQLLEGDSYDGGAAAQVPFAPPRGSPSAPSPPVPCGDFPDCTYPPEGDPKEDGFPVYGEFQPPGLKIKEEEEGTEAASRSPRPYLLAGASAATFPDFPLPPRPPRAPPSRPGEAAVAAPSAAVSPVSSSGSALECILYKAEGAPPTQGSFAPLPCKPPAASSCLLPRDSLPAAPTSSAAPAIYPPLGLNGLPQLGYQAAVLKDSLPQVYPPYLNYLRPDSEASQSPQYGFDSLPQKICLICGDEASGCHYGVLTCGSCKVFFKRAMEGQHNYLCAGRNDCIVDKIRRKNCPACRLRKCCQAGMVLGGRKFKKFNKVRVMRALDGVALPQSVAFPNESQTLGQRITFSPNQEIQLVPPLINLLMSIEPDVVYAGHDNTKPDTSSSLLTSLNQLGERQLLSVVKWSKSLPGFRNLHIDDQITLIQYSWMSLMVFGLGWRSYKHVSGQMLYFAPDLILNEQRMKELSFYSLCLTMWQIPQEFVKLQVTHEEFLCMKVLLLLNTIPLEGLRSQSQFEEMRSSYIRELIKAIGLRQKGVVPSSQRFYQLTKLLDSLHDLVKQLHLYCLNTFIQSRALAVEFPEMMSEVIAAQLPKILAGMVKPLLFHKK

Androgen receptor [4] = molecular target: T3, Androgen receptor (Mus musculus, UniProt P19091); assay: Effective concentration against Androgen receptor in mouse fibroblast L929 cells
T3 sequence (P19091 whole entry): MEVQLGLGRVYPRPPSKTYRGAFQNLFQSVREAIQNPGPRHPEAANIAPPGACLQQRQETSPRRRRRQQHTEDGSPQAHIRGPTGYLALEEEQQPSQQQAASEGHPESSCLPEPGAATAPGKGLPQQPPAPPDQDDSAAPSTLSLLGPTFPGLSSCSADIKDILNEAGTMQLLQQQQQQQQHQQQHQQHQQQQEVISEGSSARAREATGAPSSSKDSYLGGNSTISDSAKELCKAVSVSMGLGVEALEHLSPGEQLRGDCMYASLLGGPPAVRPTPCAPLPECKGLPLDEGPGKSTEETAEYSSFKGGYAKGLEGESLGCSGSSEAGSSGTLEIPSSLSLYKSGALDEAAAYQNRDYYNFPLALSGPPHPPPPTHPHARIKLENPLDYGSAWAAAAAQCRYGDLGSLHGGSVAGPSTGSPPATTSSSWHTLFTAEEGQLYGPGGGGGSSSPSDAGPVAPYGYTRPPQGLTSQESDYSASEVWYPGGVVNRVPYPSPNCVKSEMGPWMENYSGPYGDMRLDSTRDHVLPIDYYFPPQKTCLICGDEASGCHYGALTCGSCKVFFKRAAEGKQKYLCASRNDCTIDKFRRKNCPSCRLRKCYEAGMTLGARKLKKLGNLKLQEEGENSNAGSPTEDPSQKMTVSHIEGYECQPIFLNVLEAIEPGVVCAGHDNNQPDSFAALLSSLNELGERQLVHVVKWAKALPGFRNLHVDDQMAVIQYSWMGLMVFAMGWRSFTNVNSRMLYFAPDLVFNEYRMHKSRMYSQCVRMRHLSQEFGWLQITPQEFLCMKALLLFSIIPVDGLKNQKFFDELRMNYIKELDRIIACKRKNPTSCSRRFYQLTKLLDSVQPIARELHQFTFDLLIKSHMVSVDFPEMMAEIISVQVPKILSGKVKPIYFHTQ

Androgen receptor [5] = molecular target: T3, Androgen receptor; assay: Inhibitory activity against Androgen receptor in mouse fibroblast L929 cells; type: cell-based
Glucocorticoid receptor [6] = molecular target: T4, Glucocorticoid receptor (Homo sapiens, UniProt P04150); assay: Effective concentration against glucocorticoid receptor in human lung A549 cells
T4 sequence (P04150 whole entry): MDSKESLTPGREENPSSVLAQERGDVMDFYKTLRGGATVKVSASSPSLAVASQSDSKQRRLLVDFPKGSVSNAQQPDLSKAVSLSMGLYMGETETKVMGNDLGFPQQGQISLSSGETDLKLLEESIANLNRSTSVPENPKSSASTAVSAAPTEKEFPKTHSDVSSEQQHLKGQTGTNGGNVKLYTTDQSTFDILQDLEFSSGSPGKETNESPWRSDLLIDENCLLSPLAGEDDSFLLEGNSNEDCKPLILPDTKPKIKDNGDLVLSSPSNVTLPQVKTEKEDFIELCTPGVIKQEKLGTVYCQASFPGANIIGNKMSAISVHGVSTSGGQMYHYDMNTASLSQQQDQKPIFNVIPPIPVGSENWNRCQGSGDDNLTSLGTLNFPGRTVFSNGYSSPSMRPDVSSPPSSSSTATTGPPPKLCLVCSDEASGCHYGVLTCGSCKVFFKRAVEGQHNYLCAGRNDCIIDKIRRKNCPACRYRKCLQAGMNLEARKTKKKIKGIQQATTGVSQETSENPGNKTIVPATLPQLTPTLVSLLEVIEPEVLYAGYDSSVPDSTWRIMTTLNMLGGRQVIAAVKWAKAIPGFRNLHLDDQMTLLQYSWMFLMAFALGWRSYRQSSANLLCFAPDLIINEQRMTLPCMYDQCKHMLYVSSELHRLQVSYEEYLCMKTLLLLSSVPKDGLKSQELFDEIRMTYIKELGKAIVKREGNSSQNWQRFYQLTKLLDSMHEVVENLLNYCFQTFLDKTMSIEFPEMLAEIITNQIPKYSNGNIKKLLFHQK

Glucocorticoid receptor [7] = molecular target: T4, Glucocorticoid receptor; assay: Inhibitory activity against glucocorticoid receptor in human lung A549 cells
Progesterone receptor [8] = molecular target: T1, Progesterone receptor; assay: Inhibition of 3 nM [3H]R5020 binding to progesterone receptor in human T47D cells; type: functional, cell-based
Progesterone receptor [9] = molecular target: T5, Progesterone receptor (Rattus norvegicus, UniProt Q63449); assay: Inhibitory progestational activity on oral administration in uterine C3 model; type: functional, organism-based
T5 sequence (Q63449 whole entry): T2 sequence (whole entry)

Row | Structure (SMILES) | EC50 (Progesterone receptor [2]) | further results
1 | S=C1Nc2ccc(-c3cccc(Cl)c3)cc2C12CCC2 | 28.7 nM | –
2 | Cc1cc(C#N)sc1-c1ccc2c(c1)C1(CCCCC1)C(S)=N2 | – | ED50 [3]: 1 mg/kg
3 | S=C1Nc2ccc(-c3cccc(Cl)c3)cc2C12CCCC2 | 9.8 nM | –
4 | N#Cc1ccc(-c2ccc3c(c2)C2(CCCCC2)C(=S)N3)s1 | 1 nM | –
5 | Fc1cc(Cl)cc(-c2ccc3c(c2)C2(CCCCC2)C(=S)N3)c1 | 0.5 nM | –
6 | Fc1ccc(-c2ccc3c(c2)C2(CCCCC2)C(S)=N3)cc1Cl | 4.3 nM | –
7 | N#Cc1ccc(-c2ccc3c(c2)C2(CCCCC2)C(S)=N3)cc1F | 14.8 nM | –
8 | N#Cc1cc(F)cc(-c2ccc3c(c2)C2(CCCCC2)C(S)=N3)c1 | 0.36 nM | EC50 (Androgen receptor [4]): > 10000 nM; IC50 (Androgen receptor [5]): > 10000 nM; EC50 (Glucocorticoid receptor [6]): > 10000 nM; IC50 (Glucocorticoid receptor [7]): 35 nM; IC50 (Progesterone receptor [8]): 15.9 nM; ED50 [3]: 0.1 mg/kg; IC50 (Progesterone receptor [9]): 0.025 mg/kg
9 | SC1=Nc2ccc(-c3cccc(Cl)c3)cc2C12CCCCC2 | – | ED50 [3]: > 3 mg/kg; IC50 (Progesterone receptor [9]): 0.37 mg/kg
10 | S=C1Nc2ccc(-c3ccc(Cl)cc3)cc2C12CCCCC2 | 2000 nM | –
11 | N#Cc1ccc(F)c(-c2ccc3c(c2)C2(CCCCC2)C(=S)N3)c1 | 1.4 nM | –
12 | CC(=O)O[C@]1(C(C)=O)CC[C@H]2[C@@H]3C[C@H](C)C4=CC(=O)CC[C@]4(C)[C@H]3CC[C@@]21C [MEDROXYPROGESTERONE ACETATE] | – | IC50 (Progesterone receptor [9]): 0.026 mg/kg
13 | CC1(Cc2ccccc2)C(=S)Nc2ccc(-c3cccc(Cl)c3)cc21 (stereo not drawn) | 1200 nM | –
14 | CCCc1cc(C#N)sc1-c1ccc2c(c1)C1(CCCCC1)C(S)=N2 | 7.7 nM | –
15 | COc1cc(F)cc(-c2ccc3c(c2)C2(CCCCC2)C(=S)N3)c1 | 2.6 nM | –
16 | N#Cc1ccc(-c2ccc3c(c2)C2(CCCCC2)C(S)=N3)s1 | – | ED50 [3]: 0.1 mg/kg; IC50 (Progesterone receptor [9]): 0.03 mg/kg
17 | CCCCc1cc(C#N)sc1-c1ccc2c(c1)C1(CCCCC1)C(S)=N2 | 23.5 nM | –
18 | S=C1Nc2ccc(-c3ccc(Cl)s3)cc2C12CCCCC2 | 1.4 nM | –

More lines, main results first:

Row | EC50 (Progesterone receptor [2]) | Structure (SMILES) | further results
19 | > 3000 nM | CN1C(=S)C2(CCCCC2)c2cc(-c3cccc(Cl)c3)ccc21 | EC50 (Progesterone receptor [1]): > 3000 nM
20 | 2.5 nM | Oc1cccc(-c2ccc3c(c2)C2(CCCCC2)C(S)=N3)c1 | –
21 | 1.9 nM | N#Cc1ccc(-c2ccc3c(c2)C2(CCCCC2)C(S)=N3)o1 | ED50 [3]: 1 mg/kg
22 | 0.8 nM | Fc1cc(F)cc(-c2ccc3c(c2)C2(CCCCC2)C(=S)N3)c1 | –
23 | 5.3 nM | S=C1Nc2ccc(-c3ccccc3Cl)cc2C12CCCCC2 | –
24 | 71.4 nM | SC1=Nc2ccc(-c3cccc(-c4ccccc4)c3)cc2C12CCCCC2 | –
25 | > 3000 nM | Cc1c(S)[nH]c2ccc(-c3cccc(Cl)c3)cc12 | –
26 | 1.9 nM | N#Cc1cc(-c2ccc3c(c2)C2(CCCCC2)C(=S)N3)co1 | –
27 | 0.5 nM | Cc1cc(C#N)sc1-c1ccc2c(c1)C1(CCCCC1)C(=S)N2 | –
28 | 4.2 nM | N#Cc1cc(-c2ccc3c(c2)C2(CCCCC2)C(=S)N3)ccc1F | –
29 | 200 nM | CCC1(CC)C(=S)Nc2ccc(-c3cccc(Cl)c3)cc21 | –
30 | 1.6 nM | S=C1Nc2ccc(-c3cccc(Cl)c3)cc2C12CCCCC2 | –
31 | 5.4 nM | Fc1ccc(-c2ccc3c(c2)C2(CCCCC2)C(S)=N3)cc1F | –
32 | 2 nM | N#Cc1cccc(-c2ccc3c(c2)C2(CCCCC2)C(=S)N3)c1 | ED50 [3]: 0.4 mg/kg; IC50 (Progesterone receptor [9]): 0.3 mg/kg
33 | 5 nM | CC1(C)C(=S)Nc2ccc(-c3cccc(Cl)c3)cc21 | –
34 | 1.6 nM | Fc1cccc(-c2ccc3c(c2)C2(CCCCC2)C(S)=N3)c1 | –
35 | 0.3 nM | N#Cc1cc(-c2ccc3c(c2)C2(CCCCC2)C(=S)N3)cs1 | –
